Results: patent US9107926B2, “Mutant selectivity and combinations of a phosphoinositide 3-kinase inhibitor compound and chemotherapeutic agents for the treatment of cancer” (Genentech, Inc., priority 2012, dated 2015)

How the values were obtained:
[1] = test system: KNS-62; test: CellTiter-Glo cell proliferation assay; assay type: cell-based; settings: Homo sapiens, Lung(NSCLC), K-RAS
[2] = test system: AU565; test: CellTiter-Glo cell proliferation assay; assay type: cell-based; settings: Homo sapiens, Breast, HER2 Amplified
[3] = test system: HT-29; test: CellTiter-Glo cell proliferation assay; assay type: cell-based; settings: Homo sapiens, Colon, K-RAS
[4] = test system: HCC1954.x1 breast tumor xenografts; test: In vivo mouse tumor xenograft efficacy; design: species or system mice; settings: for % TGI@ day 21: QD x 21, PO
Procedure: The term uL means microliter.
Xenografts were initiated with cancer cells. […] Volume was calculated using the formula: […]

[5] = test system: A427; test: CellTiter-Glo cell proliferation assay; assay type: cell-based; settings: Homo sapiens, A-427, Lung(NSCLC), K-RAS
[6] = test system: SW1783; test: CellTiter-Glo cell proliferation assay; assay type: cell-based; settings: Homo sapiens, Glioma, PTEN
[7] = test system: HCC-1419; test: CellTiter-Glo cell proliferation assay; assay type: cell-based; settings: Homo sapiens, HCC1419, Breast, WT

## Cc1nc(-c2cn3c(n2)-c2ccc(-c4cnn(C(C)(C)C(N)=O)c4)cc2OCC3)n(C(C)C)n1 [GDC-0032, 2-(4-(2-(1-isopropyl-3-methyl-1H-1,2,4-triazol-5-yl)-5,6-dihydrobenzo[f]imidazo[1,2-d][1,4]oxazepin-9-yl)-1H-pyrazol-1-yl)-2-methylpropanamide]
[1]
  EC50: 3560 nM
[2]
  EC50: 93 nM
[3]
  EC50: 75 nM
[4]; 1.56 mg/kg
  % TGI@ day 21: 53%
[4]; 3.125 mg/kg
  % TGI@ day 21: 79%
[4]; 6.25 mg/kg
  % TGI@ day 21: 98%
[4]; 12.5 mg/kg
  % TGI@ day 21: 118%
[4]; 25 mg/kg
  % TGI@ day 21: 138%
[4]; daily dosing, end of dosing on day 21
  maximum TGI: 138%
[4]; doses of 12.5 and 25 mg/kg
  tumor response: Tumor regressions were observed
[5]
  EC50: 10000 nM
[6]
  EC50: 3110 nM
[7]
  EC50: 46 nM
